Assay results published in patent US5374623A, “Cysteine protease inhibitors effective for in vivo use” (Prototek, Inc., priority 1992, dated 1994).
pIC50: −log10 of the molar value. One block for each molecule: values may come before it.

Tests used:
[1] = target: T1, Cathepsin B purified from human liver (Homo sapiens, UniProt P07858); experiment: Cathepsin B inhibition, potency relative to Z-Phe-Ala-CH2 F; format: biochemical; details: substrate Z-Leu-Arg-Arg-AFC, pH 6.2, inhibitor added 2 min before substrate
T1 construct: Cathepsin B. purified from human liver; purchased Enzyme Systems Products (Dublin, Calif.); host or cells: human liver (tissue-purified)
Experimental: Cathepsin B. purified from human liver, was obtained from Enzyme Systems Products (Dublin, Calif.). The activity of the enzyme used in this Example was 50 mU per ml at 30° C. in 50 mm sodium phosphate buffer, pH 6.2, 5 mm DTT, 2 mm EDTA, with Z-Leu-Arg-Arg-7-amino-4-trifluoromethyl courmarin (Z-Leu-Arg-Arg-AFC) as substrate.
Cathepsin B assays were done under the following conditions: Five μl of enzyme stock solution was preincubated with 435 μl of phosphate buffer for 30 minutes to activate the enzyme. Nine μl of 20 mm stock substrate solution (in dimethylformamide) were added and mixed with the activated enzyme. Activity was followed by the release of free AFC as monitored by a Perkin-Elmer LS-5B spectrofluorometer (excitation=400 nm, emission=505 nm).
The inhibitors described herein were prepared in 20 mm stock solutions in DMF. Five μl aliquots of each inhibitor were added to the enzyme 2 min before the substrate was added to the mix. Potency was determined relative to the activity of a standard cathepsin B inhibitor, Z-Phe-Ala-CH2 F (relative potency of 1.0).

[2] = tested on: adjuvant-induced arthritis; experiment: Adjuvant-induced arthritis in rats, compound in ground diet (Example 15); format: in vivo; details: day 0 to day 32
Experimental: Treatment of Rheumatoid Arthritis with Mu-Tyr(OMe)-HPhe-O-Ph. Rats were injected with adjuvant on day 0 and were treated with Mu-Tyr(OMe)-HPhe-O-Ph in ground diet from the time of adjuvant injection until sacrifice at day 32. Over the course of the disease, animals were evaluated in terms of a mean clinical score, a derived series of clinically observed parameters normalized to facilitate graphical presentation. Mean paw volumes were also measured using normalized units throughout the course of the disease. At the end of the study, the animal groups were sacrificed and evaluated by X-ray analysis.

[3] = tested on: 45Ca2+-labelled bones (calvaria) of neonatal mice; experiment: Parathyroid hormone-stimulated 45Ca2+ release from cultured mouse calvaria; format: cell-based; details: for inhibition of the rate of 45Ca2+-release: 1 μm inhibitor; for inhibition of the rate of 45Ca2+-release / additional inhibition of the rate of 45Ca2+-release: 24 hour period, PTH-stimulated; for additional inhibition of the rate of 45Ca2+-release: 100 μm inhibitor
Experimental: (§1) Treatment of Osteo Arthritis with Mu-Phe-HPhe-O-Ph. ^45 Ca^2+ -labelled bones (calvaria) of neonatal mice were maintained in culture. The effect of the test compound on the rate of parathyroid hormone-stimulated ^45 Ca^2+ release was measured over a 24 hour period. An inhibitor of bone resorption (at maximal concentrations) would be expected to inhibit this rate by approximately 70%. The nature of the residual, uninhibitable ^45 Ca^2+ -release is not known but could represent chemical exchange of ^45 Ca^2+ with the medium. Mu-Phe-HPhe-O-Ph was dissolved in dimethylsulphoxide which was present in the incubation at concentrations <0.1%.
as §1, with “Mu-Leu-HPhe-O-Ph.” for “Mu-Phe-HPhe-O-Ph.”, “Mu-Leu-HPhe-O-Ph” for “Mu-Phe-HPhe-O-Ph”
as §1, with “Mu-Tyr(OMe)-HPhe-O-Ph.” for “Mu-Phe-HPhe-O-Ph.”, “Mu-Tyr(OMe)-HPhe-O-Ph” for “Mu-Phe-HPhe-O-Ph”
as §1, with “Z-Phe-Ala-O-Ph.” for “Mu-Phe-HPhe-O-Ph.”, “Z-Phe-Ala-O-Ph” for “Mu-Phe-HPhe-O-Ph”
as §1, with “Mu-Tyr(OMe)-HPhe-O-Ph.” for “Mu-Phe-HPhe-O-Ph.”, “labelled” for “-labelled”, “Mu-Tyr(OMe)-HPhe-O-Ph” for “Mu-Phe-HPhe-O-Ph”

[4] = target: Soluble extracts of P. falciparum (cysteine proteinase); experiment: Proteolytic activity of P. falciparum soluble extracts, substrate Z-Phe-Arg-AFC; format: biochemical; details: read-out: IC50, proteolytic activity of P. falciparum extract
Experimental: Soluble extracts of P. falciparum and P. vinckei were prepared and proteolytic activity was assayed with fluorogenic peptide substrate Z-Phe-Arg-AFC. […] The concentrations at which activity was inhibited by 50% (IC50) was calculated.
Soluble extracts of P. falciparum and P. vinckei were prepared and proteolytic activity was assayed with fluorogenic peptide substrate Z-Phe-Arg-AFC. […] The concentration at which activity was inhibited by 50%. (IC50) was calculated.
Soluble extracts of P. falciparum and P. vinckei were prepared and proteolytic activity was assayed with fluorogenic peptide substrate Z-Phe-Arg-AFC. […] The concentration at which activity was inhibited by 50% (IC50) was calculated.
The concentration at which activity was inhibited by 50% (IC50) was calculated.

[5] = tested on: Soluble extracts of P. vinckei; experiment: Proteolytic activity of P. vinckei soluble extracts, substrate Z-Phe-Arg-AFC; format: biochemical; details: read-out: IC50, proteolytic activity of P. vinckei extract
Experimental: (§2) Treatment of Malaria with Mu-Phe-HPhe-O-Ph. Soluble extracts of P. falciparum and P. vinckei were prepared and proteolytic activity was assayed with fluorogenic peptide substrate Z-Phe-Arg-AFC. The activity of control samples was compared with activities in the presence of multiple concentrations of Mu-Phe-HPhe-O-Ph. The concentrations at which activity was inhibited by 50% (IC50) was calculated.
as §2, with “with Mu-Leu-HPhe-O-Ph.” for “with Mu-Phe-HPhe-O-Ph.”, “of Mu-Leu-HPhe-O-Phe.” for “of Mu-Phe-HPhe-O-Ph.”, “The concentration” for “The concentrations”, “by 50%.” for “by 50%”
as §2, with “with Mu-Phe-Arg(NO2)-O-Ph.” for “with Mu-Phe-HPhe-O-Ph.”, “of Mu-Phe-Arg(NO2)-O-Ph.” for “of Mu-Phe-HPhe-O-Ph.”, “The concentration” for “The concentrations”
as §2, with “with Mu-Tyr(OCH3)2 -HPhe-O-Ph.” for “with Mu-Phe-HPhe-O-Ph.”, “samples as” for “samples was”, “of Mu-Tyr(OCH3)2 -HPhe-O-Ph.” for “of Mu-Phe-HPhe-O-Ph.”, “The concentration” for “The concentrations”

[6] = tested on: bone resorption; experiment: In vivo bone resorption by urinary 14C-tetracycline excretion in rats
Experimental: Treatment of Osteo Arthritis with Mu-Phe-HPhe-O-Ph. The skeletons of young growing rats were radioactively labelled by injections with ^14 C-tetracycline over a 10 day period. The amount of bone resorption was then determined each day as the amount of radioactivity excreted in the urine. After 10 days of control excretion, test compounds were administered for three days subcutaneously and their effects on the daily excretion of tetracycline were determined. Tested compounds were dissolved in DMSO/PEG at a concentration of 25 mg/ml and were injected once per day subcutaneously in a volume of 2 ml/kg. Treatment of Osteo Arthritis with Mu-Leu-HPhe-O-Ph. The skeletons of young growing rats were radioactively labelled by injections with ^14 C-tetracycline over a 10 day period. The amount of bone resorption was then determined each day as the amount of radioactivity excreted in the urine. After 10 days of control excretion, test compounds were administered for three days subcutaneously and their effects on the daily excretion of tetracycline were determined. Tested compounds were dissolved in DMSO/PEG at a concentration of 25 mg/ml and were injected once per day subcutaneously in a volume of 2 ml/kg.

Molecule: CC(NC(=O)C(Cc1ccccc1)NC(=O)OCc1ccccc1)C(=O)COc1ccccc1 (stereo not drawn) [Z-Phe-Ala-O-Ph]
inhibition of the rate of 45Ca2+-release [3]: 50%
additional inhibition of the rate of 45Ca2+-release [3]: 20%

Molecule: NC(=NCCCC(NC(=O)C(Cc1ccccc1)NC(=O)N1CCOCC1)C(=O)COc1ccccc1)N[N+](=O)[O-] (stereo not shown) [Mu-Phe-Arg(NO2)-O-Ph]
pIC50 [4]: 8.62
pIC50 [5]: 6.96

Molecule: CC(C)C[C@H](NC(=O)N1CCOCC1)C(=O)N[C@@H](CCc1ccccc1)C(=O)COc1ccccc1 [Mu-Leu-HPhe-O-Ph]
inhibition of bone resorption in vivo as measured by tetracycline excretion ([6]; subcutaneous once per day for three days, 25 mg/ml in DMSO/PEG, 2 ml/kg): nearly as great as that of a maximal dose of calcitonin
time of maximum effect after dosing commenced ([6]; subcutaneous once per day, 25 mg/ml, 2 ml/kg): 24 h
findings at the sites of injection at end of experiment ([6]; subcutaneous, DMSO/PEG, three days, histology: inflammation of subcutaneous fat, tissue necrosis): lesions were visible at the sites of injection
inhibition of the rate of 45Ca2+-release [3]: 50%
additional inhibition of the rate of 45Ca2+-release [3]: 20%
pIC50 [4]: 9.38
pIC50 [5]: 7.82

Further lines, with some results ahead:

relative potency of cathepsin B inhibition (Z-Phe-Ala-CH2 F = 1.0) [1]: five
Molecule: t-Butyl carbamyl-L-arginyl-(2-Carboxymethyl) phenoxymethyl ketone [Example 3]

pIC50 ([3]; initial phase of inhibition, read-out: IC50 for inhibition of resorption in mouse calvaria): ~7.40
Molecule: COc1ccc(C[C@H](NC(=O)N2CCOCC2)C(=O)N[C@@H](CCc2ccccc2)C(=O)COc2ccccc2)cc1 [Mu-Tyr(OMe)-HPhe-O-Ph]
mean clinical scores vs untreated animals [2]: significantly lower
mean paw volumes vs untreated animals [2]: significantly reduced
inhibition of the rate of 45Ca2+-release [3]: 50%
additional inhibition of the rate of 45Ca2+-release [3]: 20%

relative potency of cathepsin B inhibition (Z-Phe-Ala-CH2 F = 1.0) [1]: 1.0
Molecule: C[C@H](NC(=O)[C@H](Cc1ccccc1)NC(=O)OCc1ccccc1)C(=O)CF [Z-Phe-Ala-CH2 F, reference compound]

relative potency of cathepsin B inhibition (Z-Phe-Ala-CH2 F = 1.0) [1]: 0.2
Molecule: COC(=O)c1ccccc1OCC(=O)C(C)(C)NC(=O)C(Cc1ccccc1)NC(=O)N1CCOCC1 (stereo not shown) [Example 9, Morpholine carbonyl phenylalanyl 2-aminoisobutyric methyl phenoxy ketone]
